Experimental data: US10239869B2, “Sulfonamide compounds as voltage-gated sodium channel modulators” (LUPIN LIMITED, priority 2015, dated 2019)

Molecular target: Nav 1.5 (Homo sapiens (Human), UniProt Q14524)
Assay: Inhibition of sodium channels, Red Membrane Potential Dye FLIPR assay, veratridine depolarization
Format: cell-based
Conditions: HEK-293 cells overexpressing the channel; for IC50: read-out: Nav1.5 IC50 (bound given in μM)

Chain of Nav 1.5 (Q14524 whole entry): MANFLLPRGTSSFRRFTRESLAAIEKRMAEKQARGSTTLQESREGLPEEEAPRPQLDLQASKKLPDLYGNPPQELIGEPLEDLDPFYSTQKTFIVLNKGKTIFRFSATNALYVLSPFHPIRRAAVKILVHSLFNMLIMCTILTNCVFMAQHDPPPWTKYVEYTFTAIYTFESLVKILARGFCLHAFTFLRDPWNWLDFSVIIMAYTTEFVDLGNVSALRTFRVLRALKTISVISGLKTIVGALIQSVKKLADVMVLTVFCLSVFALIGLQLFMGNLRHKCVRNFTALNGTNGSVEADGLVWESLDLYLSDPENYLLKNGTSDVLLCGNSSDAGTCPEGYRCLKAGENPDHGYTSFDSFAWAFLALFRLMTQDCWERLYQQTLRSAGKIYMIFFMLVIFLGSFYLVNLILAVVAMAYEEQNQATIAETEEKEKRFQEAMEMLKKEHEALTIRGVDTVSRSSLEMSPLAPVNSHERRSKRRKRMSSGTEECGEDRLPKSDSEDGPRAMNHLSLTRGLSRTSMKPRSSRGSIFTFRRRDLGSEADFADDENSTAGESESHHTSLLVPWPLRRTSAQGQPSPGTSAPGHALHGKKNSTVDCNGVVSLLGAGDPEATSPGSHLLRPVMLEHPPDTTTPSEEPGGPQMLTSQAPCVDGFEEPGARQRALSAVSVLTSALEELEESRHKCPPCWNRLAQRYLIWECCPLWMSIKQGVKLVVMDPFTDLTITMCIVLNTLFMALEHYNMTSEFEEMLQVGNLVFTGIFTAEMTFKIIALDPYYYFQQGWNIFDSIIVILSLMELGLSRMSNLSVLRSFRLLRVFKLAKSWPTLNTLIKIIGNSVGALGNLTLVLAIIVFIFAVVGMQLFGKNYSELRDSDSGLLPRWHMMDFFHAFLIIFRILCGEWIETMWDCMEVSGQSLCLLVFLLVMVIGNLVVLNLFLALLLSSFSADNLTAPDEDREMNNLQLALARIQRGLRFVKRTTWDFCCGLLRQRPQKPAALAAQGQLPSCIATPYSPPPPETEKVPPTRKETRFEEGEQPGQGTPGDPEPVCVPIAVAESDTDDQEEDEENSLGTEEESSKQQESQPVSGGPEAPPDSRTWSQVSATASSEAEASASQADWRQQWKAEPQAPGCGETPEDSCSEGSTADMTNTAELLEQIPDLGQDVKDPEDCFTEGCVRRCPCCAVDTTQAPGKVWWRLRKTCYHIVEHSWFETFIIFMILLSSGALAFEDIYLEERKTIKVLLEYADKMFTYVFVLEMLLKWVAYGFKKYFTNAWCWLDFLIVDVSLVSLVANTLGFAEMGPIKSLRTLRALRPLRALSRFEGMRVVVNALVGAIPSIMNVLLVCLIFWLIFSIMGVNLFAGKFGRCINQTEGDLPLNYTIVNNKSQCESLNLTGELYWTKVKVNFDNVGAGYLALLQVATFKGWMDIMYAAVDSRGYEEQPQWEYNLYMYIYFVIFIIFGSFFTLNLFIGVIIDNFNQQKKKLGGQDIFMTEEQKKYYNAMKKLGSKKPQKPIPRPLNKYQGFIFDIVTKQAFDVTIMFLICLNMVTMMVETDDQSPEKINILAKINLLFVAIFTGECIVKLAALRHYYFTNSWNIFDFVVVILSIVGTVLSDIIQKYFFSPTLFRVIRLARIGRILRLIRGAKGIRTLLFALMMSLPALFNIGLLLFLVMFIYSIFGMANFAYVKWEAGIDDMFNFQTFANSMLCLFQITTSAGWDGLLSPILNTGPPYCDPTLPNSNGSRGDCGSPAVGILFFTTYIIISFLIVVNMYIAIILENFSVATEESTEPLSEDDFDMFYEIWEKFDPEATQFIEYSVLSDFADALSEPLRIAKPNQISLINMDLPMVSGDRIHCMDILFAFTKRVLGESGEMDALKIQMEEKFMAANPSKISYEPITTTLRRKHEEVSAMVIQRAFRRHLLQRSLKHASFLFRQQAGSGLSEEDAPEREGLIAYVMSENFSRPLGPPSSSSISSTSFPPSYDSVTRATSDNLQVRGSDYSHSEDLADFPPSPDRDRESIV

Structure (SMILES) | IC50 [µM] | Nav1.5 % inhibition @ 10 μM (10 μM) [%]
O=S(=O)(Nc1ccncn1)c1ccc2c(c1)OCC[C@H]2c1ccc(C(F)(F)F)cc1-n1ccnn1 [Example 57, (S&R)-4-(2-(1H-1,2,3-Triazol-1-yl)-4-(trifluoromethyl)phenyl)-N-(pyrimidin-4-yl)chromane-7-sulfonamide] | > 10 | –
O=S(=O)(Nc1ncccn1)c1ccc2c(c1)OCC[C@H]2c1ccc(C(F)(F)F)cc1N1CCOCC1 [Example 118, (S&R)-4-(2-morpholino-4-(trifluoromethyl)phenyl)-N-(pyrimidin-2-yl)chroman-7-sulfonamide] | > 10 | –
O=S(=O)(Nc1ccncn1)c1ccc2c(c1)OCC[C@@H]2c1ccc(C(F)(F)F)cc1-n1ccnn1 [Example 58, (S&R)-4-(2-(1H-1,2,3-Triazol-1-yl)-4-(trifluoromethyl)phenyl)-N-(pyrimidin-4-yl)chromane-7-sulfonamide] | > 10 | –
Cc1ccc(-c2cc(C(F)(F)F)ccc2[C@@H]2CCOc3cc(S(=O)(=O)Nc4ncccn4)ccc32)cn1 [Example-201, (S)-4-(2-(6-methylpyridin-3-yl)-4-(trifluoromethyl)phenyl)-N-(pyrimidin-2-yl)chromane-7-sulfonamide] | > 10 | –
O=S(=O)(Nc1ncc(F)cn1)c1ccc2c(c1)OCC[C@@H]2c1ccc(C(F)(F)F)cc1-c1ccc(F)nc1 [Example 38, (S&R)-4-(2-(6-Fluoropyridin-3-yl)-4-(trifluoromethyl)phenyl)-N-(5-fluoropyrimidin-2-yl) chromane-7-sulfonamide] | > 10 | –
Cn1nccc1-c1cc(C(F)(F)F)ccc1[C@@H]1CCOc2cc(S(=O)(=O)Nc3ccc(F)cn3)ccc21 [Example 5, (S&R)—N-(5-Fluoropyridin-2-yl)-4-(2-(1-methyl-1H-pyrazol-5-yl)-4-(trifluoromethyl)phenyl)chroman-7-sulfonamide] | – | 58
O=S1(=O)CCN(c2cc(C(F)(F)F)ccc2[C@H]2CCOc3cc(S(=O)(=O)Nc4cccc(F)n4)ccc32)CC1 (racemic) [Example-235, (R/S)-4-(2-(1,1-dioxidothiomorpholino)-4-(trifluoromethyl)phenyl)-N-(6-fluoropyridin-2-yl)chroman-7-sulfonamide] | > 10 | –
O=S1(=O)CCN(c2cc(C(F)(F)F)ccc2[C@H]2CCOc3cc(S(=O)(=O)Nc4ccncn4)ccc32)CC1 (racemic) [Example-237, (R/S)-4-(2-(1,1-dioxidothiomorpholino)-4-(trifluoromethyl)phenyl)-N-(pyrimidin-4-yl)chromane-7-sulfonamide] | > 10 | –
O=S(=O)(Nc1ncccn1)c1ccc2c(c1)OCC[C@H]2c1ccc(C(F)(F)F)cc1-n1ccnn1 [Example 51, (S&R)-4-(2-(1H-1,2,3-Triazol-1-yl)-4-(trifluoromethyl)phenyl)-N-(pyrimidin-2-yl)chromane-7-sulfonamide] | > 10 | –
Cn1nccc1-c1cc(C(F)(F)F)ccc1[C@@H]1CCOc2cc(S(=O)(=O)Nc3ccncn3)ccc21 [Example 9, (S&R)-4-(2-(1-Methyl-1H-pyrazol-5-yl)-4-(trifluoromethyl)phenyl)-N-(pyrimidin-4-yl) chroman-7-sulfonamide] | > 10 | –
O=S(=O)(Nc1ncccn1)c1ccc2c(c1)OCC[C@H]2c1ccc(C(F)(F)F)cc1-c1ccc(F)cn1 [Example-193, (S&R)-4-(2-(5-fluoropyridin-2-yl)-4-(trifluoromethyl)phenyl)-N-(pyrimidin-2-yl)chroman-7-sulfonamide] | > 10 | –
O=S(=O)(Nc1ncc(F)cn1)c1ccc2c(c1)OCC[C@H]2c1ccc(C(F)(F)F)cc1-c1ccc(F)cc1 [Example 45, (S&R)-4-(4′-Fluoro-5-(trifluoromethyl)-[1,1′-biphenyl]-2-yl)-N-(5-fluoropyrimidin-2-yl) chromane-7-sulfonamide] | > 10 | –
Cn1nccc1-c1cc(C(F)(F)F)ccc1[C@@H]1CCOc2cc(S(=O)(=O)Nc3cc(F)ccn3)ccc21 [Example 3, (S&R)—N-(4-Fluoropyridin-2-yl)-4-(2-(1-methyl-1H-pyrazol-5-yl)-4-(trifluoromethyl)phenyl)chroman-7-sulfonamide] | > 10 | –
